Measured values as given in the supplement of paper PMC13380429.

Tests used:
Details in all cases: 72 h
[1] = system: HepG2; test: relative viability EC50 (midpoint between 100% and the lowest measured viability); higher = less toxic
[2] = system: Calu-3; test: as above
[3] = system: U2OS; test: as above
[4] = system: Vero E6; test: as above
[5] = system: HepG2; test: drug sensitivity score (DSS) for viability; higher = more toxic; extreme values may be limits of the assay
[6] = system: Calu-3; test: as above
[7] = system: U2OS; test: as above
[8] = system: Vero E6; test: as above
[9] = system: Caco-2; test: as above
[10] = system: HepG2; test: cell viability relative to DMSO; higher = less toxic
[11] = system: Calu-3; test: as above
[12] = system: U2OS; test: as above
[13] = system: Vero E6; test: as above
[14] = system: Caco-2; test: as above
[15] = system: Caco-2; test: relative viability EC50 (midpoint between 100% and the lowest measured viability); higher = less toxic

SMILES: O=C(c1ccc(F)c(F)c1Nc1ccc(I)cc1F)N1CC(O)([C@@H]2CCCCN2)C1 [cobimetinib]
- relative viability EC50 [1]: 0.0341 µM
- relative viability EC50 [2]: 0.238 µM
- relative viability EC50 [3]: 1.43 µM
- relative viability EC50 [4]: 0.0591 µM
- drug sensitivity score [5]: 24.5
- drug sensitivity score [6]: 11.9
- drug sensitivity score [7]: 7.4
- drug sensitivity score [8]: 13
- drug sensitivity score [9]: 8.3
- cell viability ([10]; 1 nM): 94.3%
- cell viability ([10]; 10 nM): 86.7%
- cell viability ([10]; 100 nM): 32.8%
- cell viability ([10]; 1000 nM): 24.5%
- cell viability ([10]; 10000 nM): 17.1%
- cell viability ([11]; 1 nM): 93.2%
- cell viability ([11]; 10 nM): 86.6%
- cell viability ([11]; 100 nM): 81.4%
- cell viability ([11]; 1000 nM): 50.1%
- cell viability ([11]; 10000 nM): 32.7%
- cell viability ([12]; 1 nM): 96.5%
- cell viability ([12]; 10 nM): 94.5%
- cell viability ([12]; 100 nM): 94.3%
- cell viability ([12]; 1000 nM): 75.8%
- cell viability ([12]; 10000 nM): 23.6%
- cell viability ([13]; 1 nM): 90.2%
- cell viability ([13]; 10 nM): 86.1%
- cell viability ([13]; 100 nM): 72.9%
- cell viability ([13]; 1000 nM): 50.2%
- cell viability ([13]; 10000 nM): 45.7%
- cell viability ([14]; 1 nM): 89.5%
- cell viability ([14]; 10 nM): 82.8%
- cell viability ([14]; 100 nM): 84.8%
- cell viability ([14]; 1000 nM): 69.1%
- cell viability ([14]; 10000 nM): 63.1%

SMILES: CN1CCN(c2ccc(C(=O)Nc3n[nH]c4ccc(Cc5cc(F)cc(F)c5)cc34)c(NC3CCOCC3)c2)CC1 [entrectinib]
- relative viability EC50 [1]: 1.45 µM
- relative viability EC50 [2]: 1.6 µM
- relative viability EC50 [4]: 1.76 µM
- relative viability EC50 [15]: 1.74 µM
- drug sensitivity score [5]: 9.7
- drug sensitivity score [6]: 9
- drug sensitivity score [8]: 8.7
- drug sensitivity score [9]: 8.3
- cell viability ([10]; 1 nM): 104%
- cell viability ([10]; 10 nM): 100%
- cell viability ([10]; 100 nM): 102%
- cell viability ([10]; 1000 nM): 71.9%
- cell viability ([10]; 10000 nM): 0.1%
- cell viability ([11]; 1 nM): 96.7%
- cell viability ([11]; 10 nM): 95.8%
- cell viability ([11]; 100 nM): 98.5%
- cell viability ([11]; 1000 nM): 76.9%
- cell viability ([11]; 10000 nM): 1.7%
- cell viability ([13]; 1 nM): 98.5%
- cell viability ([13]; 10 nM): 101%
- cell viability ([13]; 100 nM): 99.4%
- cell viability ([13]; 1000 nM): 80.5%
- cell viability ([13]; 10000 nM): 0.3%
- cell viability ([14]; 1 nM): 98.7%
- cell viability ([14]; 10 nM): 97%
- cell viability ([14]; 100 nM): 100%
- cell viability ([14]; 1000 nM): 81.2%
- cell viability ([14]; 10000 nM): 5.3%

SMILES: NC(=O)NCCN1CCN(c2cccc(C(F)(F)F)c2)CC1 [fluprazine]
- relative viability EC50 [1]: > 10 µM
- relative viability EC50 [2]: > 10 µM
- relative viability EC50 [3]: > 10 µM
- relative viability EC50 [4]: > 10 µM
- drug sensitivity score [5]: 0
- drug sensitivity score [6]: 0
- drug sensitivity score [7]: 0
- drug sensitivity score [8]: 0
- drug sensitivity score [9]: 2
- cell viability ([10]; 1 nM): 93.3%
- cell viability ([10]; 10 nM): 112%
- cell viability ([10]; 100 nM): 110%
- cell viability ([10]; 1000 nM): 97.7%
- cell viability ([10]; 10000 nM): 109%
- cell viability ([11]; 1 nM): 105%
- cell viability ([11]; 10 nM): 97.6%
- cell viability ([11]; 100 nM): 101%
- cell viability ([11]; 1000 nM): 91.7%
- cell viability ([11]; 10000 nM): 99.5%
- cell viability ([12]; 1 nM): 102%
- cell viability ([12]; 10 nM): 103%
- cell viability ([12]; 100 nM): 94.3%
- cell viability ([12]; 1000 nM): 101%
- cell viability ([12]; 10000 nM): 99.9%
- cell viability ([13]; 1 nM): 103%
- cell viability ([13]; 10 nM): 99.5%
- cell viability ([13]; 100 nM): 110%
- cell viability ([13]; 1000 nM): 110%
- cell viability ([13]; 10000 nM): 104%
- cell viability ([14]; 1 nM): 107%
- cell viability ([14]; 10 nM): 86.5%
- cell viability ([14]; 100 nM): 85.3%
- cell viability ([14]; 1000 nM): 96.8%
- cell viability ([14]; 10000 nM): 72.3%

SMILES: O=C1OCCN1/N=C/c1ccc([N+](=O)[O-])o1 [furazolidone]
- relative viability EC50 [2]: > 10 µM
- relative viability EC50 [3]: > 10 µM
- relative viability EC50 [4]: > 10 µM
- relative viability EC50 [15]: > 10 µM
- drug sensitivity score [5]: 0.8
- drug sensitivity score [6]: 0
- drug sensitivity score [7]: 0
- drug sensitivity score [8]: 0
- drug sensitivity score [9]: 0.1
- cell viability ([10]; 1 nM): 99.3%
- cell viability ([10]; 10 nM): 104%
- cell viability ([10]; 100 nM): 102%
- cell viability ([10]; 1000 nM): 111%
- cell viability ([10]; 10000 nM): 70.5%
- cell viability ([11]; 1 nM): 111%
- cell viability ([11]; 10 nM): 97.6%
- cell viability ([11]; 100 nM): 100%
- cell viability ([11]; 1000 nM): 101%
- cell viability ([11]; 10000 nM): 110%
- cell viability ([12]; 1 nM): 101%
- cell viability ([12]; 10 nM): 93.2%
- cell viability ([12]; 100 nM): 97.1%
- cell viability ([12]; 1000 nM): 96.6%
- cell viability ([12]; 10000 nM): 96.5%
- cell viability ([13]; 1 nM): 106%
- cell viability ([13]; 10 nM): 97.8%
- cell viability ([13]; 100 nM): 105%
- cell viability ([13]; 1000 nM): 98.2%
- cell viability ([13]; 10000 nM): 97.4%
- cell viability ([14]; 1 nM): 101%
- cell viability ([14]; 10 nM): 90.2%
- cell viability ([14]; 100 nM): 95.6%
- cell viability ([14]; 1000 nM): 93.6%
- cell viability ([14]; 10000 nM): 86.1%
